Test results reported in publication PMC11923636, “Synthesis, Pharmacological Evaluation, and Molecular Modeling of Phthalimide Derivatives as Monoamine Oxidase and Cholinesterase Dual Inhibitors” (ACS Omega, 2025).
“And” between values parts separate entries of the source, which are not always exact repeats. Equal entries are not always repeated. Marks after values point to notes of the source that are not given here.

Target: Electrophorus electricus AChE (Electrophorus electricus, UniProt O42275)
Sequence (O42275 24-633): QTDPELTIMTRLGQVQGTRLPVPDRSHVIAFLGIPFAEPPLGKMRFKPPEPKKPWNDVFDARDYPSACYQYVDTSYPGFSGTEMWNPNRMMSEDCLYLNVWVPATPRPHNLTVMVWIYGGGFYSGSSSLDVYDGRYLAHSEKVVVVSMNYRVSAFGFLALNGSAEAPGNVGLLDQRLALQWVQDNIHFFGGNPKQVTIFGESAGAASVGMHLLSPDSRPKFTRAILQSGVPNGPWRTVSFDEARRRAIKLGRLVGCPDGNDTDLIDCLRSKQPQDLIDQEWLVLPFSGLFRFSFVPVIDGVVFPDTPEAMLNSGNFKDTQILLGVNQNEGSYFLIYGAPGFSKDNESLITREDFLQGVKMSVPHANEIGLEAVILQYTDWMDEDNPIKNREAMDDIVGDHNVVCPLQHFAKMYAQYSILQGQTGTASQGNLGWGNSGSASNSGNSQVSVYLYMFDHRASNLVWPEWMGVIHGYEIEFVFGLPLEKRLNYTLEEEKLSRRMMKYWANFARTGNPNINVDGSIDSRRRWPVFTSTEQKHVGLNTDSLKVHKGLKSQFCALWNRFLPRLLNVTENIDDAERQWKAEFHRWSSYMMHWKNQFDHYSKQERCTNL
Test: biochemical
Assay type: biochemical
Details: mean ± SEM, n = 3; read-out: IC50 (μM) ± SEM eeAChE
Description: (§1) The synthesized compounds were evaluated for their inhibition potential against cholinesterases (Electrophorus electricus AChE and equine serum lyophilized BChE).
(§2) The cholinesterase in vitro bioassay for the synthesized compounds was performed using already reported protocols.[29],[30] Ellman’s assay method was used to study the inhibition of Electrophorus electricus AChE and Equine Serum lyophilized BChE. Stock solutions of synthesized compounds were prepared in potassium phosphate buffer (pH 8.0). A sufficient amount of 5,5-dithio-bis-2-nitrobenzoic acid (DTNB, Ellman’s reagent), a stock solution of synthesized compounds, and 0.03 U/ml of the enzyme (AChE or BChE) were added to a 96-well plate and incubated at 30 °C for 10 min. Subsequently, 1 mM ATCI or BTCI was added, and the reaction mixture was incubated for 15 min. […] Sample concentration was plotted against inhibitory activity to obtain IC50 values.

Structure (SMILES)	IC50
O=C1c2ccccc2C(=O)N1Cc1ccc(-c2ccc(C(F)(F)F)cc2)cc1 [3e]	0.24 ± 0.01 µM
N#CCc1ccc(-c2ccc(CN3C(=O)c4ccccc4C3=O)cc2)cc1 [3g]	13.43 ± 0.08 µM
O=C1c2ccccc2C(=O)N1Cc1ccc(-c2cccc(C(F)(F)F)c2)cc1 [3f]	4.48 ± 0.11 µM
O=C1c2ccccc2C(=O)N1Cc1ccc(-c2cccs2)cc1 [3l]	0.91 ± 0.02 µM

Same assay, conditions: selectivity index

Structure (SMILES)	SI = IC50 of BChE/IC50 of AChE
O=C1c2ccccc2C(=O)N1Cc1ccc(-c2ccc(C(F)(F)F)cc2)cc1 [3e]	26
N#CCc1ccc(-c2ccc(CN3C(=O)c4ccccc4C3=O)cc2)cc1 [3g]	7
O=C1c2ccccc2C(=O)N1Cc1ccc(-c2cccc(C(F)(F)F)c2)cc1 [3f]	4
O=C1c2ccccc2C(=O)N1Cc1ccc(-c2cccs2)cc1 [3l]	61

Test system: not listed separately
Test: in vitro
Details: PAMPA, pH 7.4
Description: A fundamental requirement for the effectiveness of anti-AD drugs is their capability to traverse the BBB (blood–brain barrier). […]
Briefly, synthesized compounds were first dissolved in DMSO (10 mM) that was further diluted by the addition of phosphate buffer ([…]) having a pH of 7.4. PBL dissolved in dodecane was used for coating the membranes of the donor plates. Then, the test compound (0.2 mL) was added to the plate, followed by PBS (0.2 mL; pH = 7.4) to the acceptor plate, which was further placed under the donor plate in order to form a “sandwich”. […] A UV plate reader was employed for the measurements of the drug concentration in donor, acceptor, and reference wells. The permeability (Pe) of the compounds was measured by using the following formula. [drawing 2]

Structure (SMILES)	Papp at 20 h
O=C1c2ccccc2C(=O)N1Cc1ccc(-c2ccc(C(F)(F)F)cc2)cc1 [3e]	18.7 ± 1.12 ×10⁻⁶ cm/s
O=C1c2ccccc2C(=O)N1Cc1ccc(-c2cccc(C(F)(F)F)c2)cc1 [3f]	18.3 ± 1.27 ×10⁻⁶ cm/s
C[C@H](NCc1ccc(OCc2cccc(F)c2)cc1)C(N)=O [safinamide, reference compound]	7.56 ± 0.02 ×10⁻⁶ cm/s

Same assay, conditions: class from PAMPA-BBB Pe

Structure (SMILES)	prediction of CNS penetration
O=C1c2ccccc2C(=O)N1Cc1ccc(-c2ccc(C(F)(F)F)cc2)cc1 [3e]	CNS+ ^b (“CNS+” (prediction of high BBB permeation); Pe (10^–6 cm/s) > 4.39)
O=C1c2ccccc2C(=O)N1Cc1ccc(-c2cccc(C(F)(F)F)c2)cc1 [3f]	CNS+ (“CNS+” (prediction of high BBB permeation); Pe (10^–6 cm/s) > 4.39)
C[C@H](NCc1ccc(OCc2cccc(F)c2)cc1)C(N)=O [safinamide, reference compound]	CNS+ (“CNS+” (prediction of high BBB permeation); Pe (10^–6 cm/s) > 4.39)

Target: BChE
Test: not given
Details: read-out: BChE enzyme inhibition dissociation constant (Ki value); cited from earlier work

Structure (SMILES)	Ki
O=C1c2ccccc2C(=O)N1CCc1cc2ccccc2[nH]1 [IV]	100 µM

Target: AChE
Test: not given
Details: read-out: AChE enzyme inhibition dissociation constant (Ki value); cited from earlier work

Structure (SMILES)	Ki
O=C1c2ccccc2C(=O)N1C/C=C/CN1CCN(Cc2ccccc2)CC1 [III]	193 µM

Same assay, conditions: reported in the literature; ref number not given; cited from earlier work

Structure (SMILES)	IC50
COc1cc(CN2C(=O)c3cc(Cl)c(Cl)cc3C2=O)cc(OC)c1OC [II]	0.0135 µM

Test system: SH-SY5Y neuroblastoma cells
Test: not given
Assay type: cell-based
Details: 10, 20, 30, and 50 μM; MTT
Description: To determine the biological safety of the synthesized compounds, we performed a cytotoxicity study using a human SH-SY5Y neuroblastoma cell line.
SH-SY5Y cells were cultured in 96-well plates (1 × 10^5 cells/well) in a medium containing fetal bovine serum (FBS), penicillin (100 U/ml), and streptomycin ([…]) at 37 °C and 5% CO2. […] Subsequently, synthesized compounds were added to cells, followed by the addition of 20 μL of MTT reagent (10 mg/mL) at the specified time. Plates were then incubated at 37 °C and 5% CO2, and purple color precipitate formation was observed by a microscope. Lastly, DMSO ([…]) was added to solubilize precipitates, and the plates were read at 570 nm to determine the cell viability. Results are expressed as percentage growth of cells, in which their viability is compared to control cells in the presence or absence of synthesized compounds and a standard. The following formula was utilized for the measurement of the % cell viability. [drawing 1]

Structure (SMILES)	cytotoxicity on SH-SY5Y cells
O=C1c2ccccc2C(=O)N1Cc1ccc(-c2ccc(C(F)(F)F)cc2)cc1 [3e]	No cytotoxicity
O=C1c2ccccc2C(=O)N1Cc1ccc(-c2cccc(C(F)(F)F)c2)cc1 [3f]	No cytotoxicity

Same assay, conditions: higher concentrations (100 μM); MTT

Structure (SMILES)	neurotoxicity on SH-SY5Y cells
O=C1c2ccccc2C(=O)N1Cc1ccc(-c2ccc(C(F)(F)F)cc2)cc1 [3e]	negligible neurotoxicity
O=C1c2ccccc2C(=O)N1Cc1ccc(-c2cccc(C(F)(F)F)c2)cc1 [3f]	negligible neurotoxicity

Target: T1, human MAO-A (Homo sapiens, UniProt P21397)
T1 sequence (P21397 1-527): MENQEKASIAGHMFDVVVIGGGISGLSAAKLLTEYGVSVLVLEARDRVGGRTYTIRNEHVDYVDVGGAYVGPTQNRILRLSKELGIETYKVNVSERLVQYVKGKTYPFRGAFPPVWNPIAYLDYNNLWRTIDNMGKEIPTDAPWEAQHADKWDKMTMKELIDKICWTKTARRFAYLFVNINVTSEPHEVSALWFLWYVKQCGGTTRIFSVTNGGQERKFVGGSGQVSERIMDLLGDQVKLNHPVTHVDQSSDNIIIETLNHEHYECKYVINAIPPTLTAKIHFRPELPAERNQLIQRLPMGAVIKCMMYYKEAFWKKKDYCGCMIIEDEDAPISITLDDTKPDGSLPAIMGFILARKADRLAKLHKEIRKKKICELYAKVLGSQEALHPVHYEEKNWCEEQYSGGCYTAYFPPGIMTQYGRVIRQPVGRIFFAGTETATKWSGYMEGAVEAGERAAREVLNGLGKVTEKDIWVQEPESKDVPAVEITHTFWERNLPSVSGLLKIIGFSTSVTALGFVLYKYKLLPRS
Test: Human MAO isoform inhibition assay (fluorometric), MAO-A
Assay type: biochemical
Details: mean ± SEM, n = 3; read-out: IC50 (μM) ± SEM hMAO-A
Description: (§3) The human MAO isoform assay was also carried out using a fluorescence-based assay protocol according to the reported literature.
(§4) Inhibitory activity of the synthesized compounds against MAO isoforms, specifically human MAO-A and MAO-B, was determined by using benzylamine and tyramine substrates in the dark (protected from light) in a 96-well plate by an already reported fluorometric method.[31],[32]

Structure (SMILES)	IC50
O=C1c2ccccc2C(=O)N1Cc1ccc(-c2ccc(C(F)(F)F)cc2)cc1 [3e]	16.5 ± 0.66 µM
N#CCc1ccc(-c2ccc(CN3C(=O)c4ccccc4C3=O)cc2)cc1 [3g]	5.44 ± 0.16 µM
O=C1c2ccccc2C(=O)N1Cc1ccc(-c2cccc(C(F)(F)F)c2)cc1 [3f]	11.3 ± 0.2 µM
O=C1c2ccccc2C(=O)N1Cc1ccc(-c2cccs2)cc1 [3l]	8.29 ± 0.33 µM

Target: T2, mice brain MAO-B (Mus musculus, UniProt Q8BW75)
T2 construct: from tissue; host or cells: ICR mouse brain homogenate pellet
T2 sequence (Q8BW75 1-520): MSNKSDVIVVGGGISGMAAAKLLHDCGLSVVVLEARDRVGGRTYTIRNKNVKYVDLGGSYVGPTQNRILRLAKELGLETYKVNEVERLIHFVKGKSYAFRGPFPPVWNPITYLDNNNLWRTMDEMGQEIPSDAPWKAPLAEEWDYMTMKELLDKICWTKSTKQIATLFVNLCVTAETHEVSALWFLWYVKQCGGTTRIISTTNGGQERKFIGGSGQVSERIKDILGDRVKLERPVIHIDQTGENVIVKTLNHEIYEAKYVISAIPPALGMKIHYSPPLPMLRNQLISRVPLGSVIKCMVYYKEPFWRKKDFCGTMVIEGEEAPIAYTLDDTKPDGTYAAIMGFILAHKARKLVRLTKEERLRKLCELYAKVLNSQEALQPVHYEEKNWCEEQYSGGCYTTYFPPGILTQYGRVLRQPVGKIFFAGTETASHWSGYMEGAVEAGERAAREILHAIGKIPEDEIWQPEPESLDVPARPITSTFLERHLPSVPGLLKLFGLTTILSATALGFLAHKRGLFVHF
Test: Ex vivo MAO-B inhibition reversibility time course
Assay type: in vivo, ICR mice
Details: after 5 h, single ip dose
Description: After the experiments, the animals were euthanized following Animal Euthanasia (AVMA Guidelines) guidelines to ensure humane treatment. Five groups of ICR mice were administered test samples by intraperitoneal injection, and the intact brains were excised and were then frozen for almost 1 h (−20 °C). Brain tissue ([…]) was suspended in sucrose (0.3 M) using a homogenizer (Ultra-Turrax T8; at 60 Hz for almost 70 s) and then subjected to centrifugation for 10 min at 1500 rpm (4 °C). 200 μL of supernatant was collected and centrifuged for 20 min at 15,000 rpm and 4 °C. Subsequently, the formed pellet was resuspended in KHPO4 solution (pH 7.2, 600 μL) and then subjected to 20 min centrifugation at 15,000 rpm and 4 °C. This process was repeated three times. Enzyme activity was determined using an Assay Kit (monoamine oxidase). […] The mice were then sacrificed at intervals ranging from 0.5 to 48 h.[34]

Structure (SMILES)	activity of MAO-B recovered
O=C1c2ccccc2C(=O)N1Cc1ccc(-c2ccc(C(F)(F)F)cc2)cc1 [3e]	50%

Same assay, conditions: after 24 h, single ip dose

Structure (SMILES)	activity of MAO-B recovered
O=C1c2ccccc2C(=O)N1Cc1ccc(-c2ccc(C(F)(F)F)cc2)cc1 [3e]	~95%
O=C1c2ccccc2C(=O)N1Cc1ccc(-c2cccc(C(F)(F)F)c2)cc1 [3f]	~80%

Target: T3, human MAO-B (Homo sapiens, UniProt P27338)
T3 sequence (P27338 1-520): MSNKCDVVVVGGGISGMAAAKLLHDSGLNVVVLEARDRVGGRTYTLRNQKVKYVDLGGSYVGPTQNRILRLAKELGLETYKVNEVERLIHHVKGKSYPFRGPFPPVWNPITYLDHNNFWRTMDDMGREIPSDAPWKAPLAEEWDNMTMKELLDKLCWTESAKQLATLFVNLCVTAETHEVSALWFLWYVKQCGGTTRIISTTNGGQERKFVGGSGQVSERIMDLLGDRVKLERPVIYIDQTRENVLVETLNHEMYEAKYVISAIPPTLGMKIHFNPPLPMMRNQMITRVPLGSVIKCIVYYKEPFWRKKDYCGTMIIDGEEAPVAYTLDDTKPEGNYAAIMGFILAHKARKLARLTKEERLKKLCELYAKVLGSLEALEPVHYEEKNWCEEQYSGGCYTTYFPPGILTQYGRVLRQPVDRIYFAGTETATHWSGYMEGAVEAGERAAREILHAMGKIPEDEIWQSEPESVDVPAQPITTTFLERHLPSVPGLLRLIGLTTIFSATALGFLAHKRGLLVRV
Test: Human MAO isoform inhibition assay (fluorometric), MAO-B
Assay type: biochemical
Details: mean ± SEM, n = 3; read-out: IC50 (μM) ± SEM hMAO-B
Description: as §3, §4

Structure (SMILES)	IC50
O=C1c2ccccc2C(=O)N1Cc1ccc(-c2ccc(C(F)(F)F)cc2)cc1 [3e]	0.11 ± 0.01 µM
N#CCc1ccc(-c2ccc(CN3C(=O)c4ccccc4C3=O)cc2)cc1 [3g]	0.78 ± 0.04 µM
O=C1c2ccccc2C(=O)N1Cc1ccc(-c2cccc(C(F)(F)F)c2)cc1 [3f]	0.09 µM and 0.091 µM
O=C1c2ccccc2C(=O)N1Cc1ccc(-c2cccs2)cc1 [3l]	0.14 ± 0.01 µM

Same assay, conditions: selectivity index

Structure (SMILES)	SI (IC50 hMAO-A/IC50 hMAO-B)
O=C1c2ccccc2C(=O)N1Cc1ccc(-c2ccc(C(F)(F)F)cc2)cc1 [3e]	150
N#CCc1ccc(-c2ccc(CN3C(=O)c4ccccc4C3=O)cc2)cc1 [3g]	7
O=C1c2ccccc2C(=O)N1Cc1ccc(-c2cccc(C(F)(F)F)c2)cc1 [3f]	124
O=C1c2ccccc2C(=O)N1Cc1ccc(-c2cccs2)cc1 [3l]	59

Target: T4, equine serum lyophilized BChE (Equus caballus, UniProt P81908)
T4 construct: Equine Serum lyophilized BChE; from tissue; host or cells: equine serum
T4 sequence (P81908 whole entry): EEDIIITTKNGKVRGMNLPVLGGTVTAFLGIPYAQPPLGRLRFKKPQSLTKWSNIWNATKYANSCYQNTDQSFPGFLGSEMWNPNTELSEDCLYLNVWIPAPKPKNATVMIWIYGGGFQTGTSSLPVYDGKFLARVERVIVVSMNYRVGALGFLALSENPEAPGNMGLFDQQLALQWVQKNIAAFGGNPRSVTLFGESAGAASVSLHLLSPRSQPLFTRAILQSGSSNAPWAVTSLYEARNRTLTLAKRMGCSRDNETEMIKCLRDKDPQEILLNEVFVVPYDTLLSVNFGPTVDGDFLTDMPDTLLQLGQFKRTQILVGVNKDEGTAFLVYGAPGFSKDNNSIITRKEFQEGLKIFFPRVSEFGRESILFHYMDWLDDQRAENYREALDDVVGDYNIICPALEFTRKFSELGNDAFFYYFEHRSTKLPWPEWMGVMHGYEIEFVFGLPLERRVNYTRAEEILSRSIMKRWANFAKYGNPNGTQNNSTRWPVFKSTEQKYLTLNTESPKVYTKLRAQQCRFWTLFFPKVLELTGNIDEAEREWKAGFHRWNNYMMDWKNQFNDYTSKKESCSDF
Test: biochemical
Details: mean ± SEM, n = 3; read-out: IC50 (μM) ± SEM eqBChE
Description: as §1, §2

Structure (SMILES)	IC50
O=C1c2ccccc2C(=O)N1Cc1ccc(-c2ccc(C(F)(F)F)cc2)cc1 [3e]	6.29 ± 0.17 µM
N#CCc1ccc(-c2ccc(CN3C(=O)c4ccccc4C3=O)cc2)cc1 [3g]	99.1 ± 1.21 µM
O=C1c2ccccc2C(=O)N1Cc1ccc(-c2cccc(C(F)(F)F)c2)cc1 [3f]	17 ± 1.04 µM
O=C1c2ccccc2C(=O)N1Cc1ccc(-c2cccs2)cc1 [3l]	55.3 ± 1.31 µM
